Columns and labels:
[1] = system: mice; assay: Bioluminescent study, intramuscular injection of F-luc mRNA LNPs; type: in vivo; conditions: F-luc luminescence flux normalized to MC3; 0.25 mg/kg intramuscular, mice n=3, 6-hour time point
Experimental: The efficacy of nanoparticle compositions was evaluated using bioluminescent studies. A dose of 0.25 mg/kg (mpk) of the formulation was administered to mice (n=3) via intramuscular injection, and bioluminescence was measured at a 6-hour time point. The test lipid nanoparticles from the MC3 formulation were evaluated, and in some cases, controls (e.g., PBS controls) were assessed for comparison.
The characteristics of the test lipid nanoparticles measured from the test groups, including F-luc luminescence intensity, are listed in the table below.

[2] = LNP encapsulation efficiency (Quant-it Ribogreen); type: physicochemical; conditions: mRNA LNP, cationic lipid/DSPC/cholesterol/PEG-lipid 50:10:38.5:1.5
Excerpt: Encapsulation Efficiency: The encapsulation efficiency of a therapeutic and/or prophylactic agent refers to the amount of the therapeutic and/or prophylactic agent encapsulated within or otherwise associated with the nanoparticle composition relative to the initial amount provided during preparation. Encapsulation efficiency is desirably high (such as close to 100%). Encapsulation efficiency can be measured, for example, by comparing the amount of therapeutic and/or prophylactic agent in a solution containing the nanoparticle composition before and after disruption of the nanoparticle composition using one or more organic solvents or detergents. Fluorescence can be used to measure the amount of free therapeutic and/or prophylactic agent (e.g., RNA) in solution. For the nanoparticle compositions described herein, the encapsulation efficiency of the therapeutic and/or prophylactic agent may be at least 50%, such as 50%, 55%, 60%, 65%, 70%, 75%, 80%, 85%, 90%, 91%, 92%, 93%, 94%, 95%, 96%, 97%, 98%, 99%, or 100%. In some embodiments, the encapsulation efficiency may be at least 80%. In certain embodiments, the encapsulation efficiency may be at least 90%.
(§1) In summary, the cationic lipid described herein, DSPC, cholesterol, and PEG-lipid were dissolved in ethanol at a molar ratio of 50:10:38.5:1.5 and diluted in 10 mM to 50 mM citrate buffer at pH 4 with mRNA. Using a microfluidic device, the lipid ethanol solution was mixed with mRNA aqueous solution at a volume ratio of 1:3 and a total flow rate ranging from 6-30 mL/min, preparing LNPs with a total lipid to mRNA weight ratio of approximately 10:1 to 30:1. Ethanol was removed by dialysis and replaced with PBS. Finally, the lipid nanoparticles were filtered through a 0.22 μm sterile filter.
(§2) The size of lipid nanoparticles was measured by dynamic light scattering using a Malvern Zetasizer Nano ZS (Malvern, UK) with a 90° scattering detection mode. The encapsulation efficiency of lipid nanoparticles was determined using the Quant-it Ribogreen RNA Quantitation Kit (Thermo Fisher Scientific, UK) according to the manufacturer's instructions. The apparent pKa of LNP formulations correlates with the delivery efficiency of nucleic acids by LNPs in vivo. The apparent pKa ranges from approximately 5 to 7. An analysis based on fluorescence from 2-(p-tolylamino)-6-naphthalenesulfonic acid (TNS) was used to determine the apparent pKa of formulations. As described above, LNP formulations containing cationic lipid/DSPC/cholesterol/DMG-PEG (50/10/38.5/1.5 mol %) in PBS were prepared. A 300 μM stock solution of TNS in distilled water was prepared. LNP formulations were diluted to 0.1 mg/mL total lipid in 3 mL of buffer solution containing 50 mM sodium citrate, 50 mM sodium phosphate, 50 mM sodium borate, and 30 mM sodium chloride (pH ranged from 3 to 9). […] S-shaped curve best-fit analysis was applied to the fluorescence data, and the pKa value was measured as the pH value producing half-maximal fluorescence intensity.

[3] = LNP zeta potential; type: physicochemical; conditions: mRNA LNP
Excerpt: Nanoparticle compositions can be characterized by various methods. For example, the morphology and size distribution of nanoparticle compositions can be examined using microscopy (e.g., transmission electron microscopy or scanning electron microscopy). The zeta potential can be measured using dynamic light scattering or potentiometric titration. Dynamic light scattering can also be used to determine particle size. Instruments such as the Zetasizer Nano ZS (Malvern Instruments Ltd., Malvern, Worcestershire, UK) can also be used to measure multiple characteristics of nanoparticle compositions, such as particle size, polydispersity index, and zeta potential.
[…]: The zeta potential of the nanoparticle composition can indicate the electrophoretic potential of the composition. For example, zeta potential may describe the surface charge of the nanoparticle composition. Nanoparticle compositions with relatively low positive or negative charges are generally desirable, as materials with higher charges may interact undesirably with cells, tissues, and other components in the body. In some embodiments, the zeta potential of the nanoparticle composition may be about −10 mV to about +20 mV, about −10 mV to about +15 mV, about −10 mV to about +10 mV, about −10 mV to about +5 mV, about −10 mV to about 0 mV, about −10 mV to about −5 mV, about −5 mV to about +20 mV, about −5 mV to about +15 mV, about −5 mV to about +10 mV, about −5 mV to about +5 mV, about −5 mV to about 0 mV, about 0 mV to about +20 mV, about 0 mV to about +15 mV, about 0 mV to about +10 mV, about 0 mV to about +5 mV, about +5 mV to about +20 mV, about +5 mV to about +15 mV, or about +5 mV to about +10 mV.

[4] = LNP size and PDI by dynamic light scattering; type: physicochemical; conditions: mRNA LNP, cationic lipid/DSPC/cholesterol/PEG-lipid 50:10:38.5:1.5
Experimental: as §1, §2

CCCCCCCC(C(=O)NCCCCCCCCCC(=O)OC(CCCCCC)CCCCCC)N(CCCN1CCCC1)C(=O)CCCCCCCCCC(=O)OC(CCCCCC)CCCCCC (stereo not shown) [Compound A2]
Relative Total flux [1]: C (C: ≥0.1 and <1) | Encapsulation efficiency (%) [2]: 50.77% | Zeta potential (mV) [3]: −2.69 mV | PDI [4]: 0.153 | Size (nm) [4]: 78.3 nm

CCCCC/C=C\C/C=C\CCCCCCCCNC(=O)C(CCCCCCCC)N(CCCCCCCC/C=C\C/C=C\CCCCC)C(=O)CCCN(C)CCO (stereo not shown) [Compound C6]
Relative Total flux [1]: D (D: <0.1.)

CCCCCCCCNC(=O)C(CCCCCCC)N(CCCN(C)C)C(=O)CCCCCCC(=O)OC(CCCCCCCC)CCCCCCCC (stereo not shown) [Compound A30]
Relative Total flux [1]: B (B: ≥1 and <2) | Encapsulation efficiency (%) [2]: 96.65% | Zeta potential (mV) [3]: 0.47 mV | PDI [4]: 0.12 | Size (nm) [4]: 86.87 nm

CCCCCCC(CCCCCC)OC(=O)CCCCCCCCCNC(=O)C(CCCCCCCCCC(=O)OC(CCCCCC)CCCCCC)N(CCCN(CC)CC)C(=O)CCCN(CC)CC (stereo not shown) [Compound E7]
Relative Total flux [1]: C (C: ≥0.1 and <1) | Encapsulation efficiency (%) [2]: 92.11% | Zeta potential (mV) [3]: −16.13 mV | PDI [4]: 0.13 | Size (nm) [4]: 95.52 nm

CCCCCCCC(C(=O)NCCCCCCCCCC(=O)OC(CCCCCC)CCCCCC)N(CCN(CCO)C1CCC1)C(=O)CCCCCCCCCC(=O)OC(CCCCCC)CCCCCC (stereo not shown) [Compound B11]
Relative Total flux [1]: A (A: ≥2) | Encapsulation efficiency (%) [2]: 81.83% | Zeta potential (mV) [3]: −9.69 mV | PDI [4]: 0.205 | Size (nm) [4]: 70.27 nm

CCCCCCC(CCCCCC)OC(=O)CCCCCCCCCNC(=O)C(CCCCCCCCCC(=O)OC(CCCCCC)CCCCCC)N(CCCN1CCCC1)C(=O)CCCN1CCCC1 (stereo not shown) [Compound E8]
Relative Total flux [1]: B (B: ≥1 and <2) | Encapsulation efficiency (%) [2]: 96.30% | Zeta potential (mV) [3]: −18.58 mV | PDI [4]: 0.182 | Size (nm) [4]: 92.75 nm

CCCCCCCCC(CCCCCC)C(=O)OCCCCCCN(CCCCO)CCCCCCOC(=O)C(CCCCCC)CCCCCCCC (stereo not shown) [ALC-0315]
Relative Total flux [1]: A (A: ≥2) | Encapsulation efficiency (%) [2]: 93.27% | Zeta potential (mV) [3]: −0.76 mV | PDI [4]: 0.082 | Size (nm) [4]: 70.12 nm

CCCCC/C=C\C/C=C\CCCCCCCCNC(=O)C(CCCCCCCC)N(CCCCCCCC/C=C\C/C=C\CCCCC)C(=O)CCCN1CCCC1 (stereo not shown) [Compound C4]
Relative Total flux [1]: B (B: ≥1 and <2)

CCCCCCCCNC(=O)C(CCCCCC)N(CCCN(C)C)C(=O)CCCCCCC(=O)OC(CCCCCCCC)CCCCCCCC (stereo not shown) [Compound A29]
Relative Total flux [1]: A (A: ≥2) | Encapsulation efficiency (%) [2]: 94.69% | Zeta potential (mV) [3]: −1.24 mV | PDI [4]: 0.09 | Size (nm) [4]: 94.71 nm

CCCCCCCCC(CCCCCC)COC(=O)CCCCCNC(=O)C(CCCCC)N(CCCN(C)C)C(=O)CCCCCC(=O)OCC(CCCCCCCC)CCCCCCCC (stereo not shown) [Compound A43]
Relative Total flux [1]: A (A: ≥2)

CCCCCCCCC(C(=O)NCCCCCCCCCC(=O)OC(CCCC)CCCCCC)N(CCCN1CCCC1)C(=O)CCCCCCCCCC(=O)OC(CCCC)CCCCCC (stereo not shown) [Compound A3]
Relative Total flux [1]: C (C: ≥0.1 and <1)

CCCCCCCCC(C(=O)NCCCCCCCCCC(=O)OC(CCCCCC)CCCCCC)N(CCCCN1CCN(CCCN(C(=O)CCCCCCCCCC(=O)OC(CCCCCC)CCCCCC)C(CCCCCCCC)C(=O)NCCCCCCCCCC(=O)OC(CCCCCC)CCCCCC)CC1)C(=O)CCCCCCCCCOC(=O)C(CCCCCC)CCCCCC (stereo not shown) [Compound D3]
Relative Total flux [1]: C (C: ≥0.1 and <1)

CCCCCCCCNC(=O)C(CCCCCCCC)N(CCCCN1CCCC1)C(=O)CCCCCCC(=O)OC(CCCCCCCC)CCCCCCCC (stereo not shown) [Compound A37]
Relative Total flux [1]: B (B: ≥1 and <2)

CCCCCCCCNC(=O)C(CCCCCCCC)N(CC1CCCN(C)C1)C(=O)CCCCCCC(=O)OC(CCCCCCCC)CCCCCCCC (stereo not shown) [Compound A39]
Relative Total flux [1]: A (A: ≥2)

CCCCCCCCC(C(=O)NCCCCCCCCCC(=O)OC(CCCCCC)CCCCCC)N(CCN(C)CCN(C(=O)CCCCCCCCCC(=O)OC(CCCCCC)CCCCCC)C(CCCCCCCC)C(=O)NCCCCCCCCCC(=O)OC(CCCCCC)CCCCCC)C(=O)CCCCCCCCCC(=O)OC(CCCCCC)CCCCCC (stereo not shown) [Compound D6]
Relative Total flux [1]: A (A: ≥2)

CCCCC/C=C\C/C=C\CCCCCCCC(=O)N(CCCCN1CCCC1)C(CCCCCCCCCCC)C(=O)NCCCCCCCCCCCCCC (stereo not shown) [Compound A24]
Relative Total flux [1]: C (C: ≥0.1 and <1)

CCCCC/C=C\C/C=C\CCCCCCCCNC(=O)C(CCCCCCCC)N(CCCCCCCC/C=C\C/C=C\CCCCC)C(=O)CCCN(CCO)CCO (stereo not shown) [Compound C7]
Relative Total flux [1]: D (D: <0.1.)

CCCCCCCCC(C(=O)NCCCCCCCCCC(=O)OCCCCCC)N(CCCN(CO)CO)C(=O)CCCCCCCCCC(=O)OC(CCCCCC)CCCCCC (stereo not shown) [Compound B1]
Relative Total flux [1]: A (A: ≥2)

CCCCCCCCNC(=O)C(CCCCCCCC)N(CCCN(C)CCCO)C(=O)CCCCCCC(=O)OC(CCCCCCCC)CCCCCCCC (stereo not shown) [Compound B27]
Relative Total flux [1]: B (B: ≥1 and <2)

CCCCCCCCCCCCCCNC(=O)C(CCCCCCCCCCC)N(CCCCN1CCCC1)C(=O)CCCCCCC(=O)OC(CCCCCCCC)CCCCCCCC (stereo not shown) [Compound A25]
Relative Total flux [1]: D (D: <0.1.)

CCCCC/C=C\C/C=C\CCCCCCCCNC(=O)C(CCCCCCCC)N(CCCCCCCC/C=C\C/C=C\CCCCC)C(=O)CCCN(C)C (stereo not shown) [Compound C2]
Relative Total flux [1]: B (B: ≥1 and <2)

CCCCC/C=C\C/C=C\CCCCCCCC(=O)N(CCCN1CCCC1)C(CCCCCCCCCCC)C(=O)NCCCCCCCCCCCCCC (stereo not shown) [Compound A22]
Relative Total flux [1]: C (C: ≥0.1 and <1)

CCCCCCCCC(CCCCCC)COC(=O)CCCCCNC(=O)C(CCCCC)N(CCCCN(C)C)C(=O)CCCCCC(=O)OCC(CCCCCC)CCCCCCCC (stereo not shown) [Compound A44]
Relative Total flux [1]: B (B: ≥1 and <2)

CCCCCCCCNC(=O)C(CCCCCCCC)N(CCCN(CC)CCO)C(=O)CCCCCCC(=O)OC(CCCCCCCC)CCCCCCCC (stereo not shown) [Compound B28]
Relative Total flux [1]: A (A: ≥2)

CCCCCCCC(C(=O)NCCCCCCCCCC(=O)OC(CCCCCC)CCCCCC)N(CCN(C)CCO)C(=O)CCCCCCCCCC(=O)OC(CCCCCC)CCCCCC (stereo not shown) [Compound B9]
Relative Total flux [1]: A (A: ≥2)

CCCCCCCCNC(=O)C(CCCCCCCC)N(CCN(CC)CC)C(=O)CCCCCCC(=O)OC(CCCCCCCC)CCCCCCCC (stereo not shown) [Compound A38]
Relative Total flux [1]: A (A: ≥2)

CCCCCCCCC(CCCCCCCC)OC(=O)CCCCCCC(=O)N(CCCN(C)C)C(CCCCCCCC)C(=O)NCCCCCC(=O)OCCC12CC3CC(CC(C3)C1)C2 (stereo not shown) [Compound A47]
Relative Total flux [1]: A (A: ≥2)
